Laboratory results published in patent US6586187B1, “Methods for solid phase combinatorial synthesis of integrin inhibitors” (Wyeth, priority 1999, dated 2003).
Positions of bridges follow the written chain, without caps; N, C: chain ends. No end group written: not given here.

How the values were obtained:
osteoclasts = experiment: Osteoclast Pitting Assay; format: cell-based; details: neonatal rat osteoclasts on bovine cortical bone slices
Description: The assay is conduct ed as described in Murrills and Dempster (1990) Bone 11:333-344. Briefly, 4×4×0.2 mm slices of devitalized bovine cortical bone are numbered, placed in the wells of 96-well culture plates and wetted with 100 ul of Medium 199 containing Hanks salts, 10 mM HEPES, pH 7.0 (Medium 199/Hanks). Bone cell suspensions containing osteoclasts are prepared by mincing the long bones of neonatal rats (Sprague-Dawley , 4-6 days old) in Medium 199/Hanks. 100 uL of the suspension are then plated onto each slice and incubated 30 minutes to allow osteoclasts to adhere. The slices are rinsed to remove non-adherent cells and incubated 24 h in Medium 199 containing Earle's salts, 10 mM HEPES and 0.7 g/L NaHCO3, which equilibrates at pH 6.9 in a 5% CO2 atmosphere. At this pH the adherent osteoclasts excavate an adequate number of resorption pits for assay purposes. Slices are fixed in 2.5% glutaraldehyde and osteoclasts counted following tartrate-resistant acid phosphatase staining. […] Resorption pits are quantified by manually counting.
The experiments are conducted according to a block design with osteoclasts from each animal exposed to each treatment. […] Several parameters are recorded on a “per slice” basis: number of pits, number of osteoclasts, number of pits per osteoclast, number of fibroblast-like bone cells. […] IC50s are calculated for active compounds using dose-response curves.

[1] = target: Vitronectin Receptor (αvβ3) (Homo sapiens, UniProt P05106+P06756); experiment: Vitronectin Receptor (αvβ3) Binding Assay; details: at 100 μM; 125I-Echistatin, 512P5 cell membranes
Chain of Vitronectin Receptor (αvβ3) (P06756 31-889 limits assumed): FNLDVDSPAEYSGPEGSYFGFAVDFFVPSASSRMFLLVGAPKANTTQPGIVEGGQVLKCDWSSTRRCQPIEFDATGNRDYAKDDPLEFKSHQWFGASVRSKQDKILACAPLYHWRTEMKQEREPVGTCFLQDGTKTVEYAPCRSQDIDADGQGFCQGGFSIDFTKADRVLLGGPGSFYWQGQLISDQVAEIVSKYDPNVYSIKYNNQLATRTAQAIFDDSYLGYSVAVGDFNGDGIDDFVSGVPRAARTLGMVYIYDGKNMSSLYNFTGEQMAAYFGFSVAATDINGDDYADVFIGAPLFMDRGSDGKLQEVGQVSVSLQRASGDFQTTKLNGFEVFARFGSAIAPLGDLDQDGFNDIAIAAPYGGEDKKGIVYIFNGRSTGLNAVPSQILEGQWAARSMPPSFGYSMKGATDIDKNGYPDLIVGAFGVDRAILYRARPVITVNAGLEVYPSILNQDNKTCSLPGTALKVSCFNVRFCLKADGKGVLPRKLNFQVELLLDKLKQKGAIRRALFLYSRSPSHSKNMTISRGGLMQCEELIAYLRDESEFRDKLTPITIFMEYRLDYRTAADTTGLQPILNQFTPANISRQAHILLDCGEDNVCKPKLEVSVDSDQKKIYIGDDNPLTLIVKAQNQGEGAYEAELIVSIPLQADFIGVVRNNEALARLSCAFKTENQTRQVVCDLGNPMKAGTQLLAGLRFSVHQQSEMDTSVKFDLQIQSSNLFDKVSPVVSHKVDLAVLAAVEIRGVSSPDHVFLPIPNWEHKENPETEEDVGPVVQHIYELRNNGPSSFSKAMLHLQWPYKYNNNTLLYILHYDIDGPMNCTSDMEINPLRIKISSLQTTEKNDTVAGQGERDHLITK
Chain of Vitronectin Receptor (αvβ3) (P06756 891-1048 limits assumed): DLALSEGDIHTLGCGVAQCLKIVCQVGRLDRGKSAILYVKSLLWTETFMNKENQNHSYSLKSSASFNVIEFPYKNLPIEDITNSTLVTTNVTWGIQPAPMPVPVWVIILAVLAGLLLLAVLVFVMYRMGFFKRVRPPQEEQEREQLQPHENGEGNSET
Chain of Vitronectin Receptor (αvβ3) (P05106 27-788): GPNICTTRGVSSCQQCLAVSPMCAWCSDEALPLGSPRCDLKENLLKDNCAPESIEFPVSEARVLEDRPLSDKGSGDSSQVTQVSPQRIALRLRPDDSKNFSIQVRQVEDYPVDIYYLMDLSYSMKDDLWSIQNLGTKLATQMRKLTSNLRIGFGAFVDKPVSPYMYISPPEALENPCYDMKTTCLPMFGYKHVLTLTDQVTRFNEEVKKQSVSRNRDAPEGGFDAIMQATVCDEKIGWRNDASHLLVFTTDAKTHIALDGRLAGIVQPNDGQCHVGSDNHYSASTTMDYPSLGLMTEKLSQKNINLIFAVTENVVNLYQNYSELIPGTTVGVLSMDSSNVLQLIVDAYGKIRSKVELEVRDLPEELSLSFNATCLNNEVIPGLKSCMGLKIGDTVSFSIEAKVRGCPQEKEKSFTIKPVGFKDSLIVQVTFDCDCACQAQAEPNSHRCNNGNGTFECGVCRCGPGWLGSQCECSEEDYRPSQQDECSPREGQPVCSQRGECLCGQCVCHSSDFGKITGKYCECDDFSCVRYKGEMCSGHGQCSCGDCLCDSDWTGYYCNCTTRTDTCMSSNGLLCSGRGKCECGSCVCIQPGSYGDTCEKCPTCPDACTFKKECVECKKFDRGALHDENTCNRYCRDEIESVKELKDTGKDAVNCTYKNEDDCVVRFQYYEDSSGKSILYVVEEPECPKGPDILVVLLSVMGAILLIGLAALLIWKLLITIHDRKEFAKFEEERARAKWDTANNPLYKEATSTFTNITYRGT

Row | ability to inhibit avb3 binding [1] | Substance | osteoclast inhibitory activity (osteoclasts)
1 |  | Calcitonin: reference compound of the osteoclast pitting assay; used as anti-resorptive in the clinic (CGNLSTCMLGTYTQDLNKFHTFPQTSIGVGAP-NH2; disulfide 1-7; ends not checked; UniProt P01257 85-116, looked up) | significant osteoclast inhibitory activity
2 | inactive at 100 μM | GRGESP: reference peptide, structure given by standard single letter designation for amino acids | 
